According to patent publication US4921887A, “Thiazole compounds and pharmaceutical composition comprising the same” (Fujisawa Pharmaceutical Company, Ltd., priority 1987, dated 1990):
In brackets after ≈: the same amount, converted by molar mass.

Tested on: anaphylactic asthma in guinea pigs
Assay: Antagonistic action on anaphylactic asthma in guinea pigs
Format: in vivo, guinea pigs (male Hartley-strain)
Conditions: Cavia porcellus; oral, 30 minutes prior to egg-white albumin aerosol; survival not less than 2 hours after antigen spraying; read-out: Prophylactic Effect ED50
Description: Antagonistic action on anaphylactic asthma in guinea pigs
Male Hartley-strain guinea pigs weighing 305-400 g were used. These animals were sensitized by intravenous injection of 0.5 ml/animal of rabbit antiserum to egg-white albumin (PCA antibody titer 4,000). After 24 hours, the animals were housed individually in 5.3-liter plastic chambers. Using a commercial sprayer, a 5% egg-white albumin solution was sprayed in the form of an aerosol into each chamber at a rate of 0.16 ml/min for 2 minutes. Thirty minutes prior to the spraying of the egg-white albumin solution, the test compound was administered orally in varied concentrations. Each dosed group consisted of 5 animals. The prophylactic effect to anaphylaxis was expressed in terms of the ED50 value determined on the basis of the number of guinea pigs which had survived for not less than 2 hours after antigen spraying for each administration concentration of the test compound.

Row | SMILES | ED50
1 | CS(=O)(=O)Nc1nc(CN2CCC(OC(c3ccccc3)c3ccccc3)CC2)cs1 [Compound A, 2-Mesylamino-4-[4-(diphenylmethoxy)piperidinomethyl]thiazole] | 0.03 mg/kg

Tested on: SRS-A synthesis or release from peritoneal exudate cells (5-lipoxygenase)
Assay: Anti-SRS-A activity (5-lipoxygenase inhibitory activity)
Format: cell-based, SD rats
Conditions: A23187 (1 μg/ml)-stimulated rat peritoneal exudate cells, indomethacin 10 μg/ml; SRS-A by contractility of isolated guinea pig ileum; read-out: Inhibitory Concentration IC50
Description: Anti-SRS-A activity (5-lipoxygenase inhibitory activity)
Peritoneal exudate cells were collected from glycogen-injected SD rats and adjusted to 1×10^7 cells/ml with Tyrode's solution. One milliliter of the cell suspension was incubated with indomethacin (10 μg/ml) and each varied concentration of the test compound for 10 minutes and, then, further incubated with Ca^++ -ionophore (A23187, 1 μg/ml) for 10 minutes. The supernatant was collected by centrifugation and the SRS-A (slow-reacting substance of anaphylaxis) activity was determined in terms of contractility of the isolated guinea pig ileum in the presence of mepyramine, atropine and methysergide.
The results were expressed in terms of the 50% inhibitory concentration to SRS-A synthesis or release from peritoneal exudate cells.

Row | IC50 | SMILES
2 | 0.023 µg/mL (≈ 0.0512 µM) | CCCC(=O)Nc1nc(CN2CCC(OC(c3ccccc3)c3ccccc3)CC2)cs1 [Compound C, 2-Butyrylamino-4-[4-(diphenylmethoxy)piperidinomethyl]thiazole]
3 | 0.011 µg/mL (≈ 0.0246 µM) | O=C(Nc1nc(CN2CCC(OC(c3ccccc3)c3ccccc3)CC2)cs1)C1CC1 [Compound D, 2-Cyclopropylcarbonylamino-4-[4-(diphenylmethoxy)piperidinomethyl]thiazole]
4 | 0.015 µg/mL (≈ 0.0344 µM) | CNC(=O)Nc1nc(CN2CCC(OC(c3ccccc3)c3ccccc3)CC2)cs1 [Compound G, 2-(3-Methylureido)-4-[4-(diphenylmethoxy)piperidinomethyl]thiazole]
5 | 0.023 µg/mL (≈ 0.0528 µM) | CCC(=O)Nc1nc(CN2CCC(OC(c3ccccc3)c3ccccc3)CC2)cs1 [Compound B, 2-Propionylamino-4-[4-(diphenylmethoxy)piperidinomethyl]thiazole]
6 | 0.014 µg/mL (≈ 0.031 µM) | CCOC(=O)Nc1nc(CN2CCC(OC(c3ccccc3)c3ccccc3)CC2)cs1 [Compound F, 2-Ethoxycarbonylamino-4-[4-(diphenylmethoxy)piperidinomethyl]thiazole]
7 | 0.015 µg/mL (≈ 0.0332 µM) | C[C@@H](O)C(=O)Nc1nc(CN2CCC(OC(c3ccccc3)c3ccccc3)CC2)cs1 [Compound E, 2-(D-Lactoylamino)-4-[4-(diphenylmethoxy)piperidinomethyl]thiazole]
